Assay results published in patent US20250268980A1, “AN ANTICANCER THERAPY TARGETING RAS AND OTHER ONCOGENIC SIGNALS BY INHIBITION OF DYNAMIC BLEBBING AND/OR SEPTINS” (THE BOARD OF REGENTS OF THE UNIVERSITY OF TEXAS SYSTEM, priority 2022, published 2025).

How the values were obtained:
Type in all cases: cell-based, human
NRAS = test: NRAS-GFP enrichment at the cortex of MV3 cells; conditions: voxels within 0.96 μm of surface
Description: 3D Cell Image Analysis. Cell morphology and septin localization were analyzed principally via u-shape3D similar to the protocol described in Driscoll et al. Nature Methods. 16, 1037-1044 (2019), the disclosure of which is incorporated herein in its entirety. Briefly, 3D images were first deconvolved using either a Richardson-Lucy or Wiener algorithm with an experimentally measured point spread function. Cells were next segmented from the image background using u-shape3D's ‘twoLevel’ mode, which combines a straightforward Otsu threshold of the image to detect the outer cell surface with a blurred version of the image to segment the inside of the cell. The volume segmented from the blurred image was morphologically eroded to ensure the fidelity of the overall segmentation. Cell surfaces were then represented as triangle meshes, and the mean surface curvature at every triangle was calculated according to methods described in Driscoll et al. Nature Methods. 16, 1037-1044 (2019) and Elliott et al., Nat. […] Septin and NRAS localization was measured from fluorescence images by extending a sphere of either 1 μm (for septins) or 2 μm (for NRAS) about each mesh triangle and mapping to the triangle the average intensity both within that sphere and the cell. Image intensity was not depth normalized prior to analysis, but was instead measured from the raw, undeconvolved image. […]

ERK = ERK activity assay with ERK-nKTR-GFP biosensor in MV3 cells
Description: (§1) Detached/Adhered Cell Culture. […] Drug treatments, solvent-only controls, or CellEvent caspase activity sensor were added to suspensions if appropriate to the experiment, and then immediately transferred to both an uncoated (for detached cells) and ibiTreated (for adhered cells) 8-well ibidi u-slide (ibidi cat #80821 and 80826) at 200 μl/well. Both slides were stored at 37° C. and 5% CO2 for either 24 hours (hrs) for viability assays, 3 hrs for ERK activity assays or 4 hours for caspase activation assays. Uncoated slides (detached) were nutated at 20 rpm during this time. […]
(§2) Viability, ERK Activity, and Caspase ActivityCell Counting Assays. Viability, ERK activity, and caspase activity assays were analyzed using live-cell fluorescent and phase-contrast microscopy, performed on a Nikon Ti microscope equipped with an environmental chamber held at 37° C. and 5% CO2 at 20× magnification. […] Live and dead cells (as identified by significant cellular ethidium signal) were counted using the Cell Counter ImageJ plugin. For ERK activity assays, live cells carrying ERK-nKTR-GFP and H2B-mCherry were imaged after 3 hours of experimental conditions and high/low ERK activity cells were counted with Cell Counter ImageJ plugin. […] Caspase positive and negative cells (as identified by significant cellular CellEvent signal) were counted using the Cell Counter ImageJ plugin.

MV3 cells = test: Caspase activity assay (CellEvent Caspase-3/7) in MV3 cells; conditions: detached MV3 cells, 4 h, 10 μg/mL WGA
Description: as §1, §2

Compound | enrichment of NRAS near the cell surface (NRAS) | ERK signaling (ERK; adhered MV3, 3 hours of FCF) | ERK activation (ERK; detached MV3, 3 hours of FCF) | caspase activation (MV3 cells)
O=C(Nc1ccccc1)Nc1ccnc(Cl)c1 [FCF, forchlorfenuron] | significantly reduced enrichment of NRAS near the cell surface | no difference in ERK signaling compared to controls | significantly reduced | –
wheat germ agglutinin [WGA] | – | – | – | consistent and specific increase of caspase activation
